US20110039848A1, “FIVE-MEMBERED RING COMPOUND” (priority 2008, published 2011)

Key:
[1] = system: Corticosterone generation; assay: Assessment test of steroid hormone synthesis inhibition (Corticosterone generation in rat adrenal gland cells stimulated with cAMP); type: cell-based; details: inhibition rate of 10 μM test article to Corticosterone generation, 2 hours with cAMP
Method: Assessment Test of Steroid Hormone Synthesis Inhibition
Control examples 1 to 4: Control example 1 was Example 350 of Patent Document 2. Control examples 2 to 4 were synthesized according to Patent Document 2.
Adrenal glands were taken out from rats, and removed excess connective tissues, adiposes and membranes in D-MEM. The adrenal glands were transferred to polytubes, and quickly segmentalized with scissors. Thereto was added D-MEM containing 1 mg/mL collagenase and […] DNase I, and then the mixture was shaken at 37° C. for 10 minutes in 80 times/minute. Then, the mixture was pipetted by 1 mL truncated pipette tip, and shaken again under the same condition. After 10 minutes, the mixture was pipetted again by 1 mL pipette tip, and the cell suspension was filtered through metal mesh. The filtrate was centrifuged at 4° C. for 5 minutes in 500 g. The supernatant was removed, and thereto was added a mixed solution of 0.16 M NH4Cl and 0.17 M Tris-HCl in 3 mL. The mixture was let stand on ice for 5 minutes, and then centrifuged under the same condition. Then, the supernatant was removed and then thereto was added D-MEM. The cell suspension was prepared and centrifuged under the same condition. Again, the supernatant was removed and then thereto was added D-MEM to give a cell suspension. The cell suspension was filtered by Cell Strainer (BD Falcon®). The filtrate was centrifuged under the same condition. After the completion of the centrifugation, the supernatant was removed, and thereto was added D-MEM containing 1% Penicillin Streptomycin Mixed Solution and 10% FBS. The mixture was seeded in Multiple well plate for adhesive cell culture, 96 wells (IWAKI) in 10000 cells/well, and incubated at 37° C. overnight in CO2 incubator.
Test article concentrations were prepared in DMSO to 2000 μM, and D-MEM containing 20 μM test article in D-MEM was prepared.
Cell-seeded plate was incubated overnight, and then the medium was removed and thereto was added D-MEM containing 20 μM test article in 50 μL/well. Then, to the mixture was promptly added D-MEM containing 20 μM cAMP in 50 μL/well so that the final concentration of the test article was 10 μM. After the addition of 2 types of D-MEM, the mixture was incubated at 37° C. for 2 hours in CO2 incubator. After 2 hours, the supernatant (50 μL) of the medium was collected. For cells, the cell toxicity of the test article was assessed according to a conventional method using Cell Titer-Glo® (Promega). For the collected supernatant, the Corticosterone concentration in the supernatant was determined according to a conventional method using Corticosterone EIA kit (Cayman).
The inhibition rate of 10 μM test article to Corticosterone generation was calculated according to the following formula confirming that the cell toxicity by the test article was not recognized.

rat lung membrane SMBS = assay: Receptor-binding assessment test of compounds using rat lung membranes ([125I]-iodocyanopindolol ligand binding assay); details: ratio of inhibiting specific binding of [125I]-iodocyanopindolol to rat lung membrane SMBS; test compound 1 μM
Method: Receptor-Binding Assessment Test of Compounds Using Rat Lung Membranes
The assessment test was carried out according to the method of Sugasawa, T. et al., J. Biol. Chem., 272, 21244-21252 (1997).
Preparation of Rat Lung Membranes
Lung taken out from SD male rat (7-week old under test, Charles River Laboratories Japan, Inc.) was removed trachea and blood vessels to shred and washed with iced tris-saline buffer (10 mM tris hydrochloric acid-154 mM sodium chloride, pH7.4). The resultant was homogenized by Hiscotron with ice-cold tris-saline buffer containing a homogenization buffer (1 mM ethylenediaminetetraacetic acid (EDTA), 1 mM 4-(2-aminoethyl)benzenesulfonyl fluoride (AEBSF), 5 μg/ml aprotinin, 5 μg/ml leupeptine) (maximum rate: 1 minute). The supernatant after low-speed centrifugation (1500×g, 20 minutes, 4° C.) was ultracentrifuged (100000×g, 20 minutes, 4° C.), and the pellet was suspended in tris-saline buffer to store at −80° C. The protein concentrations were determined by Bio-Rad Protein Assay Kit using bovine serum albumin (BSA) as a standard.
To each well in protein-nonabsorptive round-bottom 96-well assay plate (commercially available from Iwaki Glass Co., Ltd.) were added tris-saline buffer (200 μl) containing 1 nM [^125I]-iodocyanopindolol (commercially available from Amersham plc), 10 μM serotonine, 20 μm dl-propranolol, 10 μM phentolamine, 1.1 mM ascorbic acid and 100 μg lung membrane, and the mixture was pipetted to combine and then incubated at 37° C. for 30 minutes. The test compounds were dissolved in 100% dimethyl sulfoxide solution, and thereto was added 2 μl (final DMSO concentration: 1%). In order to calculate nonspecific binding amounts, to the mixture was added L-threo-3-(3,4-dihydroxyphenyl)-N-[3-(4-fluorophenyl)propyl]serine pyrrolidine amide at 100 μM of the final concentration as an alternative to the test compounds. During this time, 100 μl of 0.3% polyethyleneimine (PEI)/tris-saline buffer was added to MultiScreen plate (96-well B glass fiber, Millipore Cat. No. MAFB NOB10), and incubated for over 30 minutes. The resultant was filtered with aspiration (aspiration by the addition of 200 μl iced tris-saline buffer) to wash, and the reaction solutions on 96-well assay plate were filtered with aspiration to wash four times on MultiScreen plate. B glass fiber filter paper at the bottom of MultiScreen plate was punched out, and γ-ray doses of [^125I]-iodocyanopindolol trapped on the filter paper were determined as binding amounts. The binding amounts in the presence of DMSO (final concentration: 1%) were total binding amounts, and the binding amounts in the presence of 100 μM L-threo-3-(3,4-dihydroxyphenyl)-N-[3-(4-fluorophenyl)propyl]serine pyrrolidine amide were nonspecific binding amounts. The values subtracted the nonspecific binding amounts from the total binding amounts were the specific binding amounts. The binding activity of a compound was calculated according to the following formula, which was shown in the ratio of inhibiting the specific binding of [^125I]-iodocyanopindolol to rat lung membrane SMBS by the test compound.

[2] = system: Guinea Pig Late Asthma Model; assay: Assessment of compounds in guinea pig late asthma model; type: in vivo; details: 3 mg/kg orally one hour before antigen challenge
Method: Assessment of Compounds in Guinea Pig Late Asthma Model
The assessment was carried out using a compound obtained in Example 1.
Hartley male guinea pigs (commercially available from Japan SLC, Inc.) were pre-bred about 1 week after arrival, and then exposed by inhalation to 2% (w/v) ovalbumin (OA) saline in a plastic box (4 guinea pigs/box) for 5 minutes using a ultrasonic nebulizer (OMRON NE-U12, condition: maximum nebulizing amounts, maximum air volume), and sensitized (day 0). The same operation was carried out on day 7. On day 14 or 15, each guinea pig was administered 2% OA by inhalation for 5 minutes to initiate a response (challenge). […]
A determination and analysis of respiratory function were carried out according to the method of Penny A. Hutson et al. Am Rev Respir Dis 1988 137, 548-557. The respiratory function was determined before the antigen challenge (before drug administration) and 5 minutes and 1, 2, 3, 4, 5, 6, 7 and 8 hours after the antigen challenge, and wave profiles were imported using MacLab Chart v3.4 (AD Instruments) and analyzed later. […] The sRaw/TV values subtracting the former values were plotted against measured times, and each area under the curve (AUC4-8hr) of each animal was calculated to compare each other in the range of 4 to 8 hours after the antigen challenge. […]

Row | SMILES | inhibition at 10 µM [1] [%] | Binding Activity (%) (1 μM) (rat lung membrane SMBS) | AUC4-8 hr ((sRaw/TV) · h) ([2]; OA-sensitized Hartley male guinea pigs, 4 to 8 hours after challenge) | Improvement Rate (%) ([2]; versus control group (0.5% MC), AUC4-8hr, p<0.01 Dunnett's test)
1 | CNC(=O)NCCn1c(-c2ccc(N3CCOCC3)nn2)cs/c1=N\c1cccc(F)c1 [Example 1, N-{2-[(2Z)-2-[(3-Fluorophenyl)imino]-3-[6-(morpholin-4-yl)pyridazinyl]-1,3-thiazol-3(2H)-yl]ethyl}-N′-methylurea] | -2 | 103 | 0.411 (sRaw/TV) · h | 47
2 | CNC(=O)NCCn1c(-c2ccc(N3CCOCC3)nn2)cs/c1=N\c1ccccc1F [Example 2] | -8 | 75 |  | 
3 | CCNC(=O)NCCn1c(-c2ccc(N3CCOCC3)nn2)cs/c1=N\c1cccc(F)c1 [Example 5] | -28 | 83 |  | 
4 | CCNC(=O)NCCn1c(-c2ccc(N3CCOCC3)nn2)cs/c1=N\c1ccc(F)cc1 [Example 7] | 15 | 82 |  | 
5 | CNC(=O)NCCn1c(-c2ccc(N3CCOCC3)nn2)cs/c1=N\c1ccccc1Cl [Example 8] | -12 | 93 |  | 
6 | CCNC(=O)NCCn1c(-c2ccc(N3CCOCC3)nn2)cs/c1=N\c1ccc(Cl)cc1 [Example 11] | -8 | 88 |  | 
7 | CNC(=O)NCCn1c(-c2ccc(N3CCOCC3)nn2)cs/c1=N\c1cncc(C(F)(F)F)c1 [Example 15] | 11 | 89 |  | 
